The values below come from patent US20260216141A1, “NECROSIS INHIBITOR” (LINKGEVITY LIMITED, priority 2023, published 2026).

SMILES strings stand for the structures. “Also recorded” adds a separate entry of the source.

Assay [1] has as its system HEK293 suspension culture. The assay can be described thus: HEK293 suspension culture oxidative stress, PI/DAPI staining. The conditions noted are these: 2500 μM EGTA 2 hrs prior and during stress, 20 sec 1M H2O2. It counts as cell-based, human. As to the method: HEK293 cells were detached using trypsin, washed and placed in cell culture medium. Cells were pre-treated for 2 hrs before and during stress with or without (control) EGTA 2500 μM. Cells were stressed by placing them in a 1M hydrogen peroxide solution (in cell culture medium) for 20 sec. Cells were then washed in cell culture medium and stained with PI as well as DAPI to visualise all cell nuclei (including intact cell nuclei), and placed on a microscope slide under a coverslip and imaged.
For HEK293 suspension culture, cells were treated with a high dosage of EGTA 2 hrs prior to stress as well as during the stress. Stress was exposure to 1M hydrogen peroxide alongside untreated controls. Cells were then stained with DAPI and PI and Normarski and epifluoresence imaging was performed.

In another assay the test system is C. elegans. Put plainly: C. elegans survival after cold, heat, oxidative and toxin stress. It counts as in vivo, Caenorhabditis elegans. The conditions noted are these: EGTA 2500 μM in liposomes, 3 hrs prior to stress or 3 hrs post stress. As to the method:
C. elegans was maintained on nematode growth medium (NGM) agar plates seeded with Escherichia coli OP50, using standard culture methodologies (S. Brenner, 1974). A C. elegans (N2H) hermaphrodite stock was used as wild-type. Day 1 hermaphrodites were used in experiments and all maintenance and trials were conducted at 20° C. unless otherwise stated.
Per trial, 100 animals were placed in 1.5 ml Eppendorf tubes ([…]) containing 100 μl M9 buffer, and then transferred to a −80° C. incubator for 1.5 min. Following the stress, animals were transferred to a 20° C. incubator and maintained as usual on OP50 NGM plates. • Heat stress
Per trial, 100 animals were placed in a 37° C. incubator for 4.5 hrs on NGM plates. Following the stress, animals were transferred to a 20° C. incubator and maintained as usual on OP50 NGM plates. • Oxidative stress
Per trial, 100 animals were transferred into 1.5 ml Eppendorf tubes (20 animals per tube) containing 300 μL of 2M hydrogen peroxide for 5 min. Following the stress, animals were transferred to a 20° C. incubator and maintained as usual on OP50 NGM plates. • Toxin stress
Per trial, 100 animals were transferred into 1.5 ml Eppendorf tubes (20 animals per tube) containing 300 μL of 1.3% (v/v) tert-butylhydroperoxide (tBOOH) for 5 min. […]
Next the model Caenorhabditis elegans was used and animal survival following stress was scored. […]

The subject of a further assay is D. melanogaster. The assay can be described thus: Drosophila cold/freeze stress survival. The conditions noted are these: fed 12 hrs food containing 2500 μM EGTA; 0 degrees for 10 min. Format: in vivo, Drosophila melanogaster. As to the method: Animals were under standard culture conditions. On day 1 of adulthood, they were starved for 8 hrs, then fed 12 hrs+/−EGTA 2500 μM. Following this, the animals were moved to 0° C. for 10 min and then recovered and survival measured.
Fruit flies, Drosophila melanogaster, were likewise exposed to heat and cold stress. […]. Flies were starved for a short period of 8 hrs and then fed for 12 hrs yeast containing high doses of a calcium chelating agent to ensure an adequate amount of drug entered the animals; doses used were: 0 or 2500 μM EGTA. This was followed by cold/freeze stress, where animals were placed at 0° C. for 10 min, and then animals were scored for survival every 12 hrs. […] Thus, like with single celled yeast and bacteria and C. elegans, a full organism level protective effect of blocking the predicted weak spots associated with cell death necrosis was also seen in fruit flies.

The test system of assay [2] is Zebra fish (Danio rerio) liver. The assay can be described thus: Zebra fish liver oxidative stress, PI/DAPI staining. It counts as cell-based. The conditions noted are these: 2500 μM EGTA during stress, 7 min in 1 mM H2O2. As to the method:
Freshly culled zebrafish (Danio rerio) was dissected to quickly remove the liver which was then placed in PBS buffer and immediately stressed with 1 mM hydrogen peroxide for 7 min in with or without 2500 μM EGTA. The liver was then washed in PBS to stop the stress and stained with PI as well as DAPI to visualise all cell nuclei (including intact cell nuclei). The liver was then placed on a microscope slide under a coverslip and imaged.
Moving to more complex animals, the intact liver from freshly culled and dissected zebrafish (Danio rerio) was placed in PBS buffer and immediately stressed with the toxin hydrogen peroxide with or without EGTA. The liver was then washed in PBS and stained with PI as well as DAPI to visualise all cell nuclei (including intact cell nuclei). The liver was then placed on a microscope slide under a coverslip and imaged, and the percentage of PI-stained cells scored (relative to all cells seen in the image, i.e., DAPI stained).

The next assay relates to S. pombi. Put plainly: S. pombi oxidative stress, Propidium iodide staining. Format: cell-based. The conditions noted are these: EGTA 2500 μM during stress; 50 min 1 mM H2O2. As to the method: A culture of S. pombi was exposed to 1 mM hydrogen peroxide for 50 min. Following this the yeast cells were washed in buffer and stained with the dye Propidium iodide (PI) and placed on a microscope slide under a coverslip and imaged using Nomarski and epifluorescence microscopy to identify the percentage of yeast cells that underwent necrosis. Treatment is EGTA 2500 μM during stress. Two repeats were performed.
Bacteria, E. coli, and yeast, S. pombi, were exposed to toxin hydrogen peroxide stress (stress is for 50 min 1 mM H2O2) with or without high doses (2500 μM; c.f. FIG. 2) of the chelating agent EGTA (inhibitor of the predicted weak spot of loss of calcium ion homeostasis in the cytosol) delivered during the stress.
For yeast, cells were stained with the standard viability dye Propidium iodide (PI) that only enters necrotic cells, placed on a microscope slide under a coverslip, and imaged using Nomarski and epifluorescence microscopy to identify the percentage of cells that undergo necrosis (all cells present could be counted using Nomarski microscopy).

For `O=C(O)CN(CCOCCOCCN(CC(=O)O)CC(=O)O)CC(=O)O` [EGTA, ethylene glycol-bis(β-aminoethyl ether)-N,N,N′,N′-tetraacetic acid], the “% of necrotic cells (PI stain) relative to all cells (DAPI stain)” value is reported as “necrosis cell death is prevented; also recorded: significantly reduced” in assay [1] and “necrosis cell death is prevented; also recorded: reduction in the percentage of necrotic (PI stained) cells” in assay [2]. Also, the “C. elegans death / survival following stress” value in the assay with C. elegans is “death is prevented”. The “D. melanogaster death / survival following cold/freeze stress” value in the assay on D. melanogaster is recorded as “death is prevented; also recorded: significant protective effect”. In the assay on S. pombi, the “S. pombi death / % of necrotic (PI stained) cells following oxidative stress” value was “death is prevented”.
